In patent US20230172204A1 (BASF SE, priority 2020, published 2023):

Key:
[1] = test system: Phakopsora pachyrhizi (F129L); assay: Protective control of soybean rust on soybeans (PHAKPA P6); assay type: in vivo; settings: for % PHAKPA (F129L) Disease level P6 at 4 ppm: protective P6, 4 ppm; for % PHAKPA (F129L) Disease level P6 at 4 ppm / % PHAKPA (F129L) Disease level P6 at 16 ppm: soybean rust F129L; for % PHAKPA (F129L) Disease level P6 at 16 ppm: protective P6, 16 ppm
[2] = test system: Phakopsora pachyrhizi (F129L); assay: Protective control of soybean rust on soybeans (PHAKPA P2); assay type: in vivo; settings: for % PHAKPA (F129L) Disease level P2 at 4 ppm: protective P2, 4 ppm; for % PHAKPA (F129L) Disease level P2 at 4 ppm / % PHAKPA (F129L) Disease level P2 at 16 ppm: soybean rust F129L; for % PHAKPA (F129L) Disease level P2 at 16 ppm: protective P2, 16 ppm
[3] = P6 protective, % diseased leaf area
[4] = P2 protective, % diseased leaf area

| SMILES | % PHAKPA (F129L) Disease level P6 at 4 ppm [1] | % PHAKPA (F129L) Disease level P6 at 16 ppm [1] | % PHAKPA (F129L) Disease level P2 at 4 ppm [2] | % PHAKPA (F129L) Disease level P2 at 16 ppm [2] | PHAKPA (F129L) Disease level (%) P6 at 16 ppm [1, 3] | PHAKPA (F129L) Disease level (%) P2 at 16 ppm [2, 4] | PHAKPA (F129L) Disease level (%) P6 at 4 ppm ([1]; P6 protective, 4 ppm, % diseased leaf area) | PHAKPA (F129L) Disease level (%) P2 at 4 ppm ([2]; P2 protective, 4 ppm, % diseased leaf area) |
| --- | --- | --- | --- | --- | --- | --- | --- | --- |
| CNC(=O)/C(=N/OC)c1cccc(C)c1CO/N=C(\C)c1ccc(Cc2ccccc2)cc1C(F)(F)F [compound 407] | 17% | 4% | 12% | 6% | – | – | – | – |
| CO/N=C(/C(=O)OC)c1cccc(C)c1CO/N=C(\C)c1cc(F)cc(C(F)(F)F)c1 [compound 51] | 15% | 0% | 28% | 2% | – | – | – | – |
| CO/N=C(/C(=O)OC)c1ccccc1CO/N=C(\C)c1cccc(F)c1 [reference compound] | – | – | – | – | 80% | 90% | – | – |
| CO/N=C(/C(=O)OC)c1cccc(C)c1CO/N=C(\C)c1ccccc1C [compound 115] | 92% | 75% | 83% | 63% | – | – | – | – |
| CO/N=C(/C(=O)OC)c1cccc(C)c1CO/N=C(\C)c1ccc(F)cc1Cl [compound 256] | 70% | 20% | 50% | 18% | – | – | – | – |
| CO/C=C(/C(=O)OC)c1cccc(C)c1CO/N=C(\C)c1ccc(Br)cc1C(F)(F)F [compound 445] | 30% | 2% | 15% | 1% | – | – | – | – |
| CNC(=O)/C(=N/OC)c1cccc(C)c1CO/N=C(\C)c1cccc(C(F)(F)F)c1F [compound 69] | 13% | 0% | 2% | 0% | – | – | – | – |
| CO/N=C(/C(=O)OC)c1cccc(C)c1CO/N=C(\C)c1cccc(C(F)F)c1 [compound 19] | 87% | 1% | 87% | 0% | – | – | – | – |
| CNC(=O)/C(=N/OC)c1cccc(C)c1CO/N=C(\C)c1c(F)cccc1F [compound 214] | 28% | 4% | 14% | 0% | – | – | – | – |
| CNC(=O)/C(=N/OC)c1cccc(C)c1CO/N=C(\C)c1ccc(Cl)c(Cl)c1 [Ex. 41] | 36% | 14% | 15% | 9% | – | – | 35% | 4% |
| CNC(=O)/C(=N/OC)c1cccc(C)c1CO/N=C(\C)c1cc(Cl)cc(C(F)(F)F)c1 [compound 228] | 22% | 2% | 5% | 0% | – | – | – | – |
| CO/N=C(/C(=O)OC)c1cccc(C)c1CO/N=C(\C)c1cccc(OC(F)(F)F)c1 [Ex. 28] | – | 0% | – | 0% | 18% | 30% | – | – |
| CNC(=O)/C(=N/OC)c1cccc(C)c1CO/N=C(\C)c1c(Cl)ccc(Cl)c1OC(F)(F)F [compound 441] | 97% | 50% | 100% | 43% | – | – | – | – |
| CNC(=O)/C(=N/OC)c1cccc(C)c1CO/N=C(\C)c1cccc(N2CC(F)(F)C2)c1 [Ex. 282] | – | 18% | – | 15% | 18% | 15% | – | – |
| CNC(=O)/C(=N/OC)c1cccc(C)c1CO/N=C(\C)c1cccc(OC(F)(F)F)c1 [compound 29] | – | 0% | – | 0% | – | – | – | – |
| CO/N=C(/C(=O)OC)c1cccc(C)c1CO/N=C(\C)c1cccc(F)c1F [compound 177] | 87% | 47% | 100% | 21% | – | – | – | – |

| SMILES | % PHAKPA (F129L) Disease level P6 at 4 ppm [1] | % PHAKPA (F129L) Disease level P6 at 16 ppm [1] | % PHAKPA (F129L) Disease level P2 at 4 ppm [2] | % PHAKPA (F129L) Disease level P2 at 16 ppm [2] | PHAKPA (F129L) Disease level (%) P6 at 16 ppm [1, 3] | PHAKPA (F129L) Disease level (%) P2 at 16 ppm [2, 4] | PHAKPA (F129L) Disease level (%) P6 at 4 ppm ([1]; P6 protective, 4 ppm, % diseased leaf area) | PHAKPA (F129L) Disease level (%) P2 at 4 ppm ([2]; P2 protective, 4 ppm, % diseased leaf area) |
| --- | --- | --- | --- | --- | --- | --- | --- | --- |
| C#Cc1cc(F)c(F)c(/C(C)=N/OCc2c(C)cccc2/C(=N\OC)C(=O)OC)c1 [compound 242] | 87% | 20% | 87% | 10% | – | – | – | – |
| CO/N=C(/C)c1ccc(/C(C)=N/OCc2c(C)cccc2/C(=N\OC)C(=O)OC)c(OC(F)(F)F)c1 [compound 418] | 73% | 57% | 70% | 33% | – | – | – | – |
| CNC(=O)/C(=N/OC)c1cccc(C)c1CO/N=C(\C)c1ccc(OC(F)(F)F)cc1F [compound 270] | 0% | 1% | 3% | 0% | – | – | – | – |
| CNC(=O)/C(=N/OC)c1cccc(C)c1CO/N=C(\C)c1cc(C)cc(Cl)c1 [compound 106] | 32% | 9% | 5% | 1% | – | – | – | – |
| CO/C=C(/C(=O)OC)c1cccc(C)c1CO/N=C(\C)c1ccccc1CC(F)(F)F [compound 437] | 8% | 0% | 2% | 0% | – | – | – | – |
| CO/N=C(/C(=O)OC)c1ccccc1CO/N=C(\C)c1ccc(C(F)(F)F)cc1 [reference compound] | – | – | – | – | 13% | 43% | – | – |
| CO/N=C(/C(=O)OC)c1cccc(C)c1CO/N=C(\C)c1cc(F)ccc1C(F)(F)F [compound 249] | 90% | 43% | 87% | 37% | – | – | – | – |
| CO/N=C(/C(=O)OC)c1cccc(C)c1CO/N=C(\C)c1cccc(OC(F)F)c1 [compound 80] | 30% | 3% | 50% | 10% | – | – | – | – |
| CCc1cccc(/C(=N\OC)C(=O)NC)c1CO/N=C(\C)c1cccc(C(F)(F)F)c1 [compound 62] | 60% | 3% | 43% | 0% | – | – | – | – |
| CO/N=C(/C(=O)OC)c1cccc(C)c1CO/N=C(\C)c1ccc(OC(F)(F)F)cc1C [compound 259] | 93% | 40% | 80% | 17% | – | – | – | – |
| CCc1cccc(/C(=N\OC)C(=O)OC)c1CO/N=C(\C)c1cccc(C(F)(F)F)c1 [compound 61] | 90% | 18% | 70% | 15% | – | – | – | – |
| CO/N=C(/C)c1ccccc1/C(C)=N/OCc1c(C)cccc1/C(=N\OC)C(=O)OC [compound 187] | 90% | 90% | 100% | 100% | – | – | – | – |
| CNC(=O)/C(=N/OC)c1cccc(C)c1CO/N=C(\CC(F)(F)F)c1ccccc1C [compound 393] | 93% | 42% | 93% | 55% | – | – | – | – |
| CNC(=O)/C(=N/OC)c1cccc(C)c1CO/N=C(\C)c1cccc(OC)c1 [compound 79] | 44% | 4% | 21% | 2% | – | – | – | – |
| CO/N=C(/C(=O)OC)c1cccc(C)c1CO/N=C(\C)c1cc(C2CC2)cc(C(F)(F)F)c1 [compound 145] | 37% | 16% | 28% | 8% | – | – | – | – |
